Tests used:
[1] = Serum metabolites by 1H-NMR before and 24 h and 48 h after L-carnitine treatment; type: in vivo, human
Experimental: (§1) These and other features, aspects, and advantages of the present technology will become better understood with regard to the following drawings, which represent the analysis of patients enrolled in a phase I study of L-carnitine in septic shock (see, e.g., Puskarich et al. J Parenter Enteral Nutr 38(6): 736-743, incorporated herein by reference in its entirety). From this study, serum samples collected from carnitine-treated (n=16) and placebo-treated (n=14) patients were assayed by ^1H-nuclear magnetic resonance (NMR) and the resulting spectra were used to identify and quantify metabolites; a total of 38 metabolites were identified in each sample:
Serum samples were collected from patients enrolled in a previously published double-blind randomized phase I clinical trial of L-carnitine treatment for sepsis (see, e.g., Puskarich et al., J Parenter Enteral Nutr 38(6): 736-743, incorporated herein by reference in its entirety). From this study, serum samples collected from carnitine-treated (n=16) and placebo-treated (n=15) patients were assayed by ^1H-nuclear magnetic resonance (NMR) and the resulting spectra were used to identify and quantify metabolites; a total of 38 metabolites were identified in each sample. […]
The levels of these metabolites were also measured in samples acquired at 24 hours and 48 hours after treatment with L-carnitine. […]

sepsis patients = assay: Phase I clinical trial of L-carnitine treatment for sepsis: survival; type: in vivo, human
Experimental: as §1
Serum samples were collected from patients enrolled in a previously published double-blind randomized phase I clinical trial of L-carnitine treatment for sepsis (see, e.g., Puskarich et al., J Parenter Enteral Nutr 38(6): 736-743, incorporated herein by reference in its entirety). From this study, serum samples collected from carnitine-treated (n=16) and placebo-treated (n=15) patients were assayed by ^1H-nuclear magnetic resonance (NMR) and the resulting spectra were used to identify and quantify metabolites; a total of 38 metabolites were identified in each sample.
Serum was assayed prior to (T0) and following (T24, T48) treatment with a single 12-g dose of LC or placebo. […]

septic shock = septic shock patients; cited from earlier work

With `C[N+](C)(C)C[C@H](O)CC(=O)[O-]` [L-carnitine] the “carnitine levels at 24 hours” value ([1]; in vivo) was “higher carnitine levels”, the citrate levels ([1]; serum, LC-treated patients, following a profound decline) was “increased” and the mortality rate (sepsis patients; "high" ketone sepsis patients treated with LC compared with "low" ketone patients) was “higher mortality rate”. For the same compound, the survival (sepsis patients; patients with "low" amounts of ketone prior to L-carnitine treatment vs patients with "high" amounts) was “significantly better survival” and the “hemodynamic parameters (right atrial pressure, mean arterial pressure, arterial oxygenation)” value (septic shock) was “improvements”.

Source: patent publication US10330685B2, “Markers for sepsis treatment” (priority 2014, dated 2019)
